Results published in ChEMBL document CHEMBL3351952, “The antimicrobial activity of mono-, bis-, tris-, and tetracationic amphiphiles derived from simple polyamine platforms” (2014).

Key:
Format in all cases: functional
Staphylococcus aureus = experiment: Antimicrobial activity against Staphylococcus aureus SH1000 after 72 hrs by broth microdilution method; conditions: SH1000, 72 h
Enterococcus faecalis = experiment: Antimicrobial activity against Enterococcus faecalis OG1RF after 72 hrs by broth microdilution method
Pseudomonas aeruginosa = experiment: Antimicrobial activity against wild-type Pseudomonas aeruginosa PAO1 after 72 hrs by broth microdilution method; conditions: PAO1, 72 h
Escherichia coli = experiment: Antimicrobial activity against Escherichia coli MC4100 after 72 hrs by broth microdilution method; conditions: MC4100, 72 h

Compound	MIC (Staphylococcus aureus)	MIC (Enterococcus faecalis)	MIC (Pseudomonas aeruginosa)	MIC (Escherichia coli)
CCCCCCCCCCCCCC[N+](C)(C)CCN(C)CCN(C)CCN(C)C	16 µM	16 µM	125 µM	32 µM
CCCCCCCCCCCC[N+](C)(C)CCCCCCC[N+](C)(C)CCCCCCCCCCCC	1 µM	1 µM	8 µM	2 µM
CCCCCCCCCCCCCC[N+](C)(C)CCN(C)CCN(C)CC[N+](C)(C)CCCCCCCCCCCCCC	2 µM	1 µM	16 µM	2 µM
C=CC[N+](C)(CC[N+](C)(C)CCCCCCCCCCC)CC[N+](C)(C)CCCCCCCCCCC	1 µM	2 µM	16 µM	2 µM
CCCCCCCCCCCC[N+](C)(C)CC[N+](C)(C)CC[N+](C)(C)CCCCCCCCCCCC	≤ 60.2 µM	≤ 60.2 µM	1 µM	0.5 µM
CCCCCCCCCCCC[N+](C)(C)CCN(C)CCN(C)CC[N+](C)(C)CCCCCCCCCCCC	1 µM	1 µM	4 µM	1 µM
CCCCCCCCCCCC[N+](C)(C)CCCN(C)CCC[N+](C)(C)CCCCCCCCCCCC	1 µM	2 µM	4 µM	1 µM
CCCCCCCCCCCC[N+](C)(C)CCC[N+](C)(CCC[N+](C)(C)CCCCCCCCCCCC)Cc1ccccc1	1 µM	1 µM	2 µM	1 µM
CCCCCCCCCCCCCCCC[N+](C)(C)CCCCC[N+](C)(C)CCCCCCCCCCCCCCCC	2 µM	2 µM	32 µM	16 µM
CCCCCCCCCC[N+](C)(C)CCN(C)CC[N+](C)(C)CCCCCCCCCC	2 µM	8 µM	63 µM	8 µM
CCCCCCCCCCCC[N+](C)(C)CCN(C)CCN(C)CCN(C)C	8 µM	8 µM	32 µM	8 µM
CCCCCCCCCCCCCC[N+](C)(C)CCN(C)CC[N+](C)(C)CCCCCCCCCCCCCC	2 µM	1 µM	16 µM	4 µM
C=CC[N+](C)(CCC[N+](C)(C)CCCCCCCCCCCC)CCC[N+](C)(C)CCCCCCCCCCCC	1 µM	2 µM	4 µM	2 µM
C=CC[N+](C)(CC[N+](C)(C)CCCCCCCCCCCCCC)CC[N+](C)(C)CCCCCCCCCCCCCC	2 µM	2 µM	8 µM	2 µM
CCCCCCCCCCCC[N+](C)(C)CCC[N+](C)(CCC[N+](C)(C)CCCCCCCCCCCC)Cc1ccc(CCCCCCCC)cc1	1 µM	1 µM	4 µM	1 µM
CCCCCCCCCCCC[N+](C)(C)CCC[N+](C)(CCCC)CCC[N+](C)(C)CCCCCCCCCCCC	1 µM	1 µM	2 µM	1 µM
C=CC[N+](C)(CC[N+](C)(C)CCCCCCCCCCCCCCCC)CC[N+](C)(C)CCCCCCCCCCCCCCCC	4 µM	4 µM	16 µM	8 µM

Compound	MIC (Staphylococcus aureus)	MIC (Enterococcus faecalis)	MIC (Pseudomonas aeruginosa)	MIC (Escherichia coli)
CCCCCCCCCCCC[N+](C)(C)CCCCC[N+](C)(C)CCCCCCCCCCCC	2 µM	1 µM	2 µM	1 µM
CCCCCCCCCCC[N+](C)(C)CC[N+](C)(C)CC[N+](C)(C)CCCCCCCCCCC	2 µM	2 µM	8 µM	4 µM
C=CC[N+](C)(CC[N+](C)(C)CCCCCCCCCCCC)CC[N+](C)(CC=C)CC[N+](C)(C)CCCCCCCCCCCC (configuration not stated)	1 µM	1 µM	2 µM	1 µM
CCCCCCCCCCCC[N+](C)(C)CCN(C)CC[N+](C)(C)CCCCCCCCCCCC	1 µM	1 µM	4 µM	2 µM
CCCCCCCCCC[N+](C)(C)CCCCC[N+](C)(C)CCCCCCCCCC	2 µM	4 µM	63 µM	8 µM
CCCCCCCCCCCCCC[N+](C)(C)CC[N+](C)(C)CC[N+](C)(C)CCCCCCCCCCCCCC	1 µM	1 µM	8 µM	2 µM
CCCCCCCCCCCCCC[N+](C)(C)CCN(C)CCN(C)CC[N+](C)(C)CCCCCCCCCCCC	1 µM	1 µM	8 µM	2 µM
CCCCCCCCCCCCCCCC[N+](C)(C)CCN(C)CC[N+](C)(C)CCCCCCCCCCCCCCCC	4 µM	2 µM	32 µM	16 µM
CCCCCCCCCC[N+](C)(C)CC[N+](C)(C)CC[N+](C)(C)CCCCCCCCCC	2 µM	8 µM	63 µM	8 µM
CCCCCCCCCCCC[N+](C)(C)CCC[N+](C)(CCCCCCCCCCCC)CCC[N+](C)(C)CCCCCCCCCCCC	0.5 µM	1 µM	4 µM	1 µM
CCCCCCCCCCCC[N+](C)(C)Cc1ccccc1 [BENZODODECINIUM CHLORIDE]	8 µM	8 µM	63 µM	32 µM
C=CC[N+](C)(CC[N+](C)(C)CCCCCCCCCC)CC[N+](C)(C)CCCCCCCCCC	2 µM	4 µM	63 µM	2 µM
CCCCCCCCCCCC[N+](C)(C)CCC[N+](C)(C)CCC[N+](C)(C)CCCCCCCCCCCC	1 µM	2 µM	8 µM	2 µM
CCCCCCCCCCC[N+](C)(C)CCN(C)CC[N+](C)(C)CCCCCCCCCCC	2 µM	2 µM	8 µM	2 µM
C=CC[N+](C)(CC[N+](C)(C)CCCCCCCCCCCC)CC[N+](C)(C)CCCCCCCCCCCC	2 µM	2 µM	4 µM	2 µM
CCCCCCCCCCCCCC[N+](C)(C)CCCCC[N+](C)(C)CCCCCCCCCCCCCC	1 µM	1 µM	16 µM	4 µM
